± gives the uncertainty stated by the source.
Experiment: xn = mol fraction of the nth substance listed

Nc1ccccc1Cl + Cc1ccc(Cl)cc1
viscosity [mPa·s], 101 kPa
Settings	x1 = 0.1012	x1 = 0.2102	x1 = 0.3125	x1 = 0.4056	x1 = 0.5142	x1 = 0.6125	x1 = 0.6952	x1 = 0.7859	x1 = 0.8859
303.15 K	0.9617 ± 0.024	1.175 ± 0.029	1.405 ± 0.034	1.644 ± 0.039	1.963 ± 0.046	2.287 ± 0.053	2.586 ± 0.059	2.936 ± 0.067	3.344 ± 0.076
308.15 K	0.8921 ± 0.023	1.097 ± 0.027	1.318 ± 0.032	1.543 ± 0.037	1.833 ± 0.043	2.12 ± 0.049	2.377 ± 0.055	2.674 ± 0.061	3.014 ± 0.069
313.15 K	0.8377 ± 0.022	1.031 ± 0.026	1.238 ± 0.03	1.446 ± 0.034	1.711 ± 0.04	1.968 ± 0.046	2.195 ± 0.051	2.451 ± 0.056	2.737 ± 0.063
318.15 K	0.7836 ± 0.021	0.9716 ± 0.024	1.17 ± 0.029	1.368 ± 0.033	1.616 ± 0.038	1.852 ± 0.043	2.054 ± 0.048	2.275 ± 0.053	2.511 ± 0.058

O=S1(=O)CCCC1 + Cc1cccc(C)c1
viscosity [mPa·s], 101.3 kPa
Settings	x2 = 0.1117	x2 = 0.2206	x2 = 0.3267	x2 = 0.4301	x2 = 0.531	x2 = 0.6294	x2 = 0.7254	x2 = 0.8191	x2 = 0.9106
303.15 K	6.231 ± 0.13	4.214 ± 0.095	2.961 ± 0.068	2.171 ± 0.051	1.65 ± 0.039	1.275 ± 0.031	1.007 ± 0.025	0.7887 ± 0.02	0.6551 ± 0.017
323.15 K	4.014 ± 0.09	2.798 ± 0.064	2.042 ± 0.048	1.543 ± 0.037	1.204 ± 0.029	0.9507 ± 0.024	0.7638 ± 0.02	0.6203 ± 0.017	0.5221 ± 0.015

Nc1ccccc1Cl + Cc1cccc(Cl)c1
viscosity [mPa·s], 101 kPa
Settings	x1 = 0.1012	x1 = 0.2056	x1 = 0.3125	x1 = 0.4056	x1 = 0.5026	x1 = 0.6025	x1 = 0.7145	x1 = 0.818	x1 = 0.91
303.15 K	0.9087 ± 0.023	1.109 ± 0.027	1.348 ± 0.032	1.587 ± 0.038	1.867 ± 0.044	2.19 ± 0.051	2.595 ± 0.06	3.009 ± 0.069	3.408 ± 0.077
308.15 K	0.8581 ± 0.022	1.047 ± 0.026	1.269 ± 0.031	1.489 ± 0.036	1.743 ± 0.041	2.032 ± 0.047	2.386 ± 0.055	2.74 ± 0.063	3.073 ± 0.07
313.15 K	0.812 ± 0.022	0.99 ± 0.025	1.199 ± 0.029	1.402 ± 0.034	1.634 ± 0.039	1.893 ± 0.044	2.205 ± 0.051	2.507 ± 0.058	2.786 ± 0.064
318.15 K	0.7685 ± 0.021	0.9398 ± 0.024	1.138 ± 0.028	1.329 ± 0.032	1.544 ± 0.037	1.78 ± 0.042	2.056 ± 0.048	2.316 ± 0.053	2.545 ± 0.059

Cc1ccc(O)cc1 + Cc1cccc(O)c1
Settings	viscosity [mPa·s]
298.15 K, 101 kPa, x2 = 0.1388	14.5 ± 0.23
298.15 K, 101 kPa, x2 = 0.2461	14.32 ± 0.23
298.15 K, 101 kPa, x2 = 0.3003	14.25 ± 0.23
298.15 K, 101 kPa, x2 = 0.452	14 ± 0.22
298.15 K, 101 kPa, x2 = 0.4823	13.93 ± 0.22
298.15 K, 101 kPa, x2 = 0.5521	13.85 ± 0.22
298.15 K, 101 kPa, x2 = 0.6238	13.73 ± 0.22
298.15 K, 101 kPa, x2 = 0.6733	13.69 ± 0.22
298.15 K, 101 kPa, x2 = 0.7071	13.61 ± 0.21
298.15 K, 101 kPa, x2 = 0.7373	13.6 ± 0.21
298.15 K, 101 kPa, x2 = 0.8267	13.52 ± 0.21
298.15 K, 101 kPa, x2 = 0.9135	13.46 ± 0.21
313.15 K, 101.3 kPa, x2 = 0.1	6.798 ± 0.13
313.15 K, 101.3 kPa, x2 = 0.2	6.861 ± 0.092
313.15 K, 101.3 kPa, x2 = 0.3	6.878 ± 0.083
313.15 K, 101.3 kPa, x2 = 0.4	6.855 ± 0.1
313.15 K, 101.3 kPa, x2 = 0.5	6.75 ± 0.14
313.15 K, 101.3 kPa, x2 = 0.6	6.625 ± 0.13
313.15 K, 101.3 kPa, x2 = 0.7	6.547 ± 0.13
313.15 K, 101.3 kPa, x2 = 0.8	6.409 ± 0.14
313.15 K, 101.3 kPa, x2 = 0.9	6.321 ± 0.11
323.15 K, 101.3 kPa, x2 = 0.1	4.564 ± 0.1
323.15 K, 101.3 kPa, x2 = 0.2	4.653 ± 0.073
323.15 K, 101.3 kPa, x2 = 0.3	4.653 ± 0.06
323.15 K, 101.3 kPa, x2 = 0.4	4.618 ± 0.08
323.15 K, 101.3 kPa, x2 = 0.5	4.54 ± 0.11
323.15 K, 101.3 kPa, x2 = 0.6	4.439 ± 0.12
323.15 K, 101.3 kPa, x2 = 0.7	4.337 ± 0.11
323.15 K, 101.3 kPa, x2 = 0.8	4.246 ± 0.096
323.15 K, 101.3 kPa, x2 = 0.9	4.175 ± 0.085

CC(O)CC(C)(C)O (stereo unspecified) + Cc1ccccc1
viscosity [mPa·s], 101 kPa
Settings	x1 = 0.1346	x1 = 0.1954	x1 = 0.2938	x1 = 0.3816	x1 = 0.4929	x1 = 0.5952	x1 = 0.6969	x1 = 0.7998	x1 = 0.8958
308.15 K	0.6243 ± 0.063	0.7011 ± 0.07	0.8906 ± 0.089	1.182 ± 0.12	1.708 ± 0.17	2.106 ± 0.21	3.293 ± 0.33	5.905 ± 0.59	9.863 ± 0.99
318.15 K	0.4797 ± 0.048	0.5572 ± 0.056	0.739 ± 0.074	0.983 ± 0.098	1.41 ± 0.14	1.753 ± 0.18	2.719 ± 0.27	4.872 ± 0.49	8.571 ± 0.86

Cc1ccc(O)cc1 + Cc1ccccc1
308.15 K, 101 kPa
Settings	viscosity [mPa·s]
x1 = 0.0324	0.5202 ± 0.0047
x1 = 0.0983	0.5823 ± 0.0051
x1 = 0.2079	0.7295 ± 0.0062
x1 = 0.305	0.9088 ± 0.0075
x1 = 0.417	1.201 ± 0.0097
x1 = 0.58	1.867 ± 0.015
x1 = 0.6813	2.636 ± 0.02
x1 = 0.7299	3.2 ± 0.024
x1 = 0.8385	4.646 ± 0.035
x1 = 0.8532	5.08 ± 0.037
x1 = 0.9349	6.873 ± 0.047

O=S(=O)(Cl)Cl + Cc1ccccc1
298.15 K, 101 kPa
Settings	viscosity [mPa·s]
x1 = 0.207	0.5841 ± 0.015
x1 = 0.373	0.6144 ± 0.016
x1 = 0.572	0.6457 ± 0.017
x1 = 0.713	0.6642 ± 0.017
x1 = 0.826	0.6759 ± 0.017

O=S1(=O)CCCC1 + Cc1ccccc1
viscosity [mPa·s], 101.3 kPa
Settings	x2 = 0.1267	x2 = 0.2458	x2 = 0.3587	x2 = 0.4651	x2 = 0.5662	x2 = 0.6617	x2 = 0.7527	x2 = 0.8392	x2 = 0.9206
303.15 K	6.052 ± 0.13	3.95 ± 0.089	2.732 ± 0.063	2.029 ± 0.047	1.557 ± 0.037	1.173 ± 0.029	0.9289 ± 0.023	0.7548 ± 0.02	0.6265 ± 0.017
323.15 K	3.906 ± 0.088	2.662 ± 0.061	1.919 ± 0.045	1.458 ± 0.035	1.151 ± 0.028	0.8828 ± 0.022	0.7151 ± 0.019	0.5893 ± 0.016	0.4967 ± 0.014

O=S1(=O)CCCC1 + Cc1ccccc1C
viscosity [mPa·s], 101.3 kPa
Settings	x2 = 0.1118	x2 = 0.2206	x2 = 0.3267	x2 = 0.4301	x2 = 0.5311	x2 = 0.6293	x2 = 0.7254	x2 = 0.8191	x2 = 0.9105
303.15 K	6.89 ± 0.28	4.875 ± 0.21	3.582 ± 0.16	2.692 ± 0.12	2.066 ± 0.095	1.618 ± 0.076	1.243 ± 0.06	1.04 ± 0.051	0.8453 ± 0.043
323.15 K	4.358 ± 0.19	3.169 ± 0.14	2.397 ± 0.11	1.854 ± 0.086	1.456 ± 0.069	1.173 ± 0.057	0.9211 ± 0.046	0.8044 ± 0.041	0.6503 ± 0.034

Nc1ccccc1Cl + Cc1ccccc1Cl
viscosity [mPa·s], 101 kPa
Settings	x1 = 0.11	x1 = 0.2176	x1 = 0.3228	x1 = 0.4258	x1 = 0.5266	x1 = 0.6253	x1 = 0.7219	x1 = 0.8165	x1 = 0.9092
303.15 K	1.073 ± 0.027	1.284 ± 0.031	1.521 ± 0.036	1.782 ± 0.042	2.069 ± 0.048	2.379 ± 0.055	2.711 ± 0.062	3.065 ± 0.07	3.437 ± 0.078
308.15 K	0.9808 ± 0.025	1.175 ± 0.029	1.392 ± 0.034	1.63 ± 0.039	1.888 ± 0.044	2.164 ± 0.05	2.458 ± 0.057	2.765 ± 0.064	3.084 ± 0.071
313.15 K	0.8896 ± 0.023	1.07 ± 0.027	1.271 ± 0.031	1.49 ± 0.036	1.726 ± 0.041	1.976 ± 0.046	2.238 ± 0.052	2.507 ± 0.058	2.783 ± 0.064
318.15 K	0.7935 ± 0.021	0.9642 ± 0.024	1.153 ± 0.028	1.358 ± 0.033	1.578 ± 0.038	1.808 ± 0.043	2.045 ± 0.048	2.286 ± 0.053	2.526 ± 0.058
